# Read-outs that look alike come from different tables or passages of the source.
# How the values were obtained:
# RKO = test: MTS cell viability assay on RKO cells; assay type: cell-based; settings: Homo sapiens, 48 h
# Description: (§1) Five tumor human cancer cell lines—cerebral astrocytoma (D-384), grade IV prostatic adenocarcinoma (PC-3), mammary adenocarcinoma (MCF-7), human colon carcinoma (RKO) and lung carcinoma (A-549)—along with one immortalized hamster cell line (CHO K-1) were used. The cells PC-3, MCF-7 and RKO were cultured in RPMI-1640, D-384 on DMEM and CHO K-1 on HAM F-12 medium supplemented with 10% fetal bovine serum (FBS, Invitrogen, Karlsruhe, Germany), 1% antibiotic-antimitotic solution (100 units/mL penicillin G, 100 µg/mL streptomycin, and 0.25 µg/mL amphotericin B, Gibco, Grand Island, NY, USA), and 1% L-glutamine (2 mM, Gibco). The cells were incubated at 37 °C in a 5% CO2 atmosphere. The viable cells were counted using the trypan blue exclusion method in a hemocytometer.
# (§2) The MTS (5-[3-(carboxymethoxy)phenyl]-3-(4,5-dimethyl-2-thiazolyl)-2-(4-sulfo- phenyl)-2H-tetrazolium inner salt) cell viability assay was used to assess the inhibitory effects of the extracts on the survival of human cancer cell lines. A total of 3–5 × 10^3 cells/well were seeded into 96-well plates and were allowed to adhere for 24 h. […] Each concentration/assay was performed three times. Dimethyl sulfoxide (DMSO) was used as a negative control at a final concentration of 0.1% v/v, and 1 µM Doxorubicin was used as a positive control. The cells were incubated with the treatments for 48 h, after which 20 µL MTS (5 mg/mL, Aqueous One Solution Reagent, Gibco) was added and further incubated for 4 h at 37 °C. The absorbance was measured at 570 nm. The data obtained with cells treated with DMSO were defined to represent 100% viability.
# PC-3 = test: MTS cell viability assay on PC-3 cells; assay type: cell-based; settings: Homo sapiens, 48 h
# Description: as §1, §2
# A-549 = test: MTS cell viability assay on A-549 cells; assay type: cell-based; settings: Homo sapiens, A549; 100 µM, 48 h; Dox 1 µM; mean ± SEM; NA = no activity; read-out: Percentage (%) of inhibition, A-549
# Description: as §1, §2
# MCF-7 = test: MTS cell viability assay on MCF-7 cells; assay type: cell-based; settings: Homo sapiens, Dox 1 µM, mean ± SEM, NA = no activity, read-out: Percentage (%) of inhibition, MCF-7
# Description: as §1, §2
# HeLa = test: MTS cell viability assay on HeLa cells; assay type: cell-based; settings: Homo sapiens, 48 h, Dox 1 µM, mean ± SEM, NA = no activity, read-out: Percentage (%) of inhibition, HeLa
# CHO-K1 = test: MTS cell viability assay on immortalized CHO-K1 cells; assay type: cell-based, hamster; settings: 48 h, Dox 1 µM, mean ± SEM, NA = no activity, read-out: Percentage (%) of inhibition, CHO-K1
# Description: as §1, §2
# [1] = tested on: promastigotes of Leishmania mexicana; test: Leishmanicidal activity, MTT assay on promastigotes; assay type: cell-based; settings: for SI (Selectivity Index) = Citotoxic activity/Leishmanicidal activity: CC50 RAW / IC50 L. mexicana; for IC50: Leishmania mexicana
# Description: The leishmanicidal activity of all compounds was evaluated by measuring promastigotes’ mitochondrial activity using MTT colorimetric assay as described previously. In this study, promastigotes from Leishmania mexicana were used. The species were confirmed by amplifying and sequencing cytochrome b gene. Promastigotes were cultured at 25 °C in Schneider’s Drosophila Medium (Gibco, Invitrogen, Carlsbad, CA, USA) supplemented with 10% fetal bovine serum (Eurobio, Les Ulis, France). The medium was renewed every third day. Parasite density was determined by counting the cells using a Neubauer chamber.
# Into each well of a 96-well plate were dispensed 1 × 10^6 parasites/well. A stock solution of the compounds was prepared in DMSO (Sigma Aldrich, Saint Louis, MO, USA), and serial dilutions were added to the parasite suspension, leading to concentrations ranging from 100 to 0.001 µM, keeping the solvent concentration at 0.5%. The final volume was 200 µL for each well and triplicate conditions were carried out. Amphotericin B (Gibco) treatment (1 µM) untreated parasites and DMSO 0.5% were used as positive and negative controls, respectively. After exposure to the compounds for 48 h in culture medium, 20 µL of a solution of 5 mg/mL MTT dissolved in PBS were added to each well. The plate was incubated at 25 °C for 2 h in darkness. The plate was then centrifuged at 4400 rpm for 10 min and the culture medium was then aspirated; 50 µL of DMSO were added into each well to solubilize the formazan crystals and the plate was shaken for 5 min and then it was measured by recording changes in absorbance at 570 nm using a microplate reader Cytation 5 (BioTek) spectrophotometer. A reference wavelength of 630 nm was used as background subtraction. Optical densities were analyzed because the quantity of formazan is directly proportional to the number of viable parasites. Data were analyzed with the statistical software GraphPad Prism 7.02 (GraphPad Software, Corp.).
# [2] = Cytotoxicity, MTT assay on RAW 264.7 macrophages; assay type: cell-based; settings: mouse
# Description: Raw 264.7 (ATCC® TIB-71™) was maintained in Dulbecco’s Modified Eagle Medium (DMEM) (Gibco, Invitrogen, Gibco, Carlsbad, CA, USA) supplemented with 10% fetal bovine serum (FBS) (Eurobio, Les Ulis, France) and 100 IU/mL penicillin + 100 μg/mL streptomycin (Gibco), at 37 °C in a 5% CO2 atmosphere. The medium was renewed once a week. The viability was determined using MTT (Thiazolyl Blue Tetrazolium Bromide) dye assay as described before for leishmanicidal activity assessment, with some variations. Here, 5 × 10^4 cells/well in a final volume of 100 µL were deposited into a 96-well plate, in triplicate. Saponin (2.4 mg/mL) and untreated cells were used as positive control and negative control, respectively. A stock solution was prepared in DMSO and immediately diluted in media to obtain different serial concentrations (100–0.01 µM). After 48 h exposure to the compounds, 10 µL/well of MTT (5 mg/mL MTT in PBS) were added, and the plate was incubated at 37 °C for 2 h in the dark. Cells were pelleted by centrifugation at 4400 rpm for 10 min and the media was removed. Then, 100 µL/well of DMSO were added and the absorbance at 570 nm was recorded; a reference wavelength of 630 nm was used for background subtraction.
# [3] = DPPH radical scavenging assay; settings: 30 min, 515 nm
# Description: The stock solution of the compounds was prepared by dissolving 4 in dimethyl sulfoxide (DMSO) to a concentration of 4 mg/mL. The solution was diluted with methanol until a concentration of 400 µg/mL was obtained and then used immediately.
# The experimental procedure was adapted from the literature. Briefly, 100 µL of a 0.2 mM methanol solution of DPPH (2, 2-diphenyl-1-picrylhydrazyl) radical were added to 100 µL of methanolic solutions of 4 prepared as serial two-fold dilutions from the stock solution in 96-well microfilter plates. Standards and edaravone were also prepared in the same concentrations. The mixture was incubated in dark at room temperature for 30 min and the absorbance was read at 515 nm on a Cytation 5 (BioTek) spectrophotometer.
# The % DPPH scavenging activity was then calculated by using the following formula:(1) % DPPH scavenging = 100 × [(Asample+DPPH−Asample blank)/(ADPPH−Asolvent)]
# The antioxidant activity of the compound was expressed as IC50, which is defined as the concentration that could scavenge 50% of the DPPH free radical. The IC50 values were calculated in GraphPad Prism 7.02 (GraphPad Software, Corp.) The results are given as a mean ± standard deviation (SD) of experiments done in triplicate.
# [4] = MTS cell viability assay on A-549 cells; assay type: cell-based; settings: Homo sapiens; 48 h, 15-150 µM, mean ± SEM of triplicates
# Description: as §1, §2
# [5] = tested on: Leishmania mexicana cells; test: Comet assay of Leishmania mexicana cells; assay type: cell-based; parameters: Comet tail length, mean (vary) / Comet tail length, median (Q50): unit not given here; settings: L. mexicana, 24 h at MIC; MMS 0.011%; Kruskal-Wallis $means
# Description: We quantified DNA breaks by a comet assay to determine if these compounds are genotoxic. Here, L. mexicana cells were exposed for 24 h to MIC concentrations previously determined (see Materials and Methods Section) for each compound. Figure 1 represents the measurements obtained for tail length. All compounds generated DNA breaks expect 4s. […] Samples with DMSO and MMS (0.011%) were included as controls. Some representative pictures are shown at Figure S4. The effect of 4p could not be determined because the cells appear to be very damaged. The data was subjected via a Kruskal–Wallis one-way ANOVA (Statistical Analyses S2). […] These observations support a mechanism of action through the generation of DNA damage.
# For leishmania, a method previously described for yeast was adapted. Briefly, after incubating the cells in presence of the compounds for 24 h, cells were collected and washed with buffer S (1 M sorbitol, 25 mM KH2PO4 in ultrapure water and adjust to pH 6.5 with NaOH). The pellet was resuspended in 400 µL of 1.5% LMA and 40 µL was spread (second layer) onto previously agarose-coated slides (first layer).
# Slides were immersed in cold lysis buffer (30 mM NaOH, 1 M NaCl, 0.05 % (w/v) lauroylsarcosine, 50 mM EDTA, and 10 mM Tris–HCl, pH 10) for 25 min and then in cold electrophoresis alkaline buffer (30 mM NaOH, 10 mM EDTA, and 10 mM Tris–HCl, pH 10). They were then subjected to electrophoresis at 26V and 300 mA. Slides were immersed in neutralization buffer (10 mM Tris–HCl, pH 7.4; prepared in advance and stored at 4 °C) for 10 min at room temperature. The cells were then treated with proteinase K (20 min, 37 °C in humid chamber), followed by a new neutralization step. To dehydrate the slides, they were immersed in EtOH 90% and EtOH absolute for 10 min each. Finally, the slides were stained with Sybr Gold 1X.
# The DNA migration was analyzed using a LEICA microscope with fluorescence (40×) by scoring 100 cells per slide in duplicate. The tail moment parameter was then analyzed by the Comet Score software.
# [6] = 100 µM, Dox 1 µM, mean ± SEM, NA = no activity, read-out: Percentage (%) of inhibition, RKO
# [7] = 100 µM, Dox 1 µM, mean ± SEM, NA = no activity, read-out: Percentage (%) of inhibition, PC-3
# [8] = read-out: IC50 original values, x.1 (Mean)
# [9] = L. mexicana promastigotes, 48 h, MTT, read-out: Leishmanicidal Activity IC50
# [10] = RAW cells, 48 h, MTT, read-out: Cytotoxicity CC50
# [11] = 15-150 µM, mean ± SEM of triplicates
smiles,measurement,setting,value
Cc1nn(-c2ccccc2)c(O)c1C(c1cc(O)ccc1[N+](=O)[O-])c1c(C)nn(-c2ccccc2)c1O,melting point,,205 to 207 °C (dec.)
COC1C=C(C(c2c(C)nn(-c3ccccc3)c2O)c2c(C)nn(-c3ccccc3)c2O)C=CC1(O)OC (stereo not drawn),melting point,,208 to 210 °C
CC1=NN(c2ccccc2)C(=O)C1=Cc1ccc(N(C)C)cc1,melting point,,190.7 to 193.2 °C
CC1=NN(c2ccccc2)C(=O)C12CC21C(=O)N(c2ccccc2)N=C1C (stereo not drawn),melting point,,165.8 to 167.9 °C
"CC1=NN(c2ccccc2)C(=O)[C@@]12C(c1ccc(F)cc1)[C@@]21C(=O)N(c2ccccc2)N=C1C (relative stereo) [4p, (5R*,6R*)-11-(4-Fluorophenyl)-4,10-dimethyl-2,8-diphenyl-2,3,8,9-tetraazadispiro[4.0.4.1]undeca-3,9-diene-1,7-dione]",inhibition at 100 µM,RKO; [6],18.6 ± 1.37%
same,inhibition at 100 µM,PC-3; [7],5.25 ± 2.6%
same,inhibition at 100 µM,A-549,9.08 ± 1.14%
same,inhibition at 100 µM,"MCF-7; MCF7, 48 h",13.6 ± 2.55%
same,inhibition at 100 µM,HeLa,5.98 ± 2.19%
same,inhibition at 100 µM,CHO-K1,1.95 ± 1.42%
same,SI (Selectivity Index) = Citotoxic activity/Leishmanicidal activity,[1],6.1
same,IC50,[1]; [8],575 nM
same,IC50,[1]; [9],570 ± 230 nM
same,CC50 at 48 h,[2]; [10],3500 ± 900 nM
same,CC50 at 48 h,"[2]; Statistical Analyses S1, unrounded mean of CC50 in RAW cells, unit inferred, read-out: CC50 original values, x.1 (Mean)",3550 nM
same,IC50,[3],> 300000 nM
same,melting point,,128.9 to 129.9 °C
"C[C@@H]1[C@H](O)[C@@H](C)/C=C/C=C/C=C/C=C/C=C/C=C/C=C/[C@H](O[C@@H]2O[C@H](C)[C@@H](O)[C@H](N)[C@@H]2O)C[C@@H]2O[C@](O)(C[C@@H](O)C[C@@H](O)[C@H](O)CC[C@@H](O)C[C@@H](O)CC(=O)O[C@H]1C)C[C@H](O)[C@H]2C(=O)O [Ampho B, Amphotericin B, reference compound]",SI (Selectivity Index) = Citotoxic activity/Leishmanicidal activity,[1],>31.8
same,IC50,[1]; [8],172 nM
same,IC50,[1]; [9],170 ± 70 nM
same,CC50 at 48 h,[2]; [10],> 5400 nM
"O=C1O[C@H]([C@@H](O)CO)C(O)=C1O [Ascorbic acid, ascorbic acid, reference compound]",IC50,[3],14000 nM
"COc1cccc2c1C(=O)c1c(O)c3c(c(O)c1C2=O)C[C@@](O)(C(=O)CO)C[C@@H]3O[C@H]1C[C@H](N)[C@H](O)[C@H](C)O1 [Dox, Doxorubicin, reference compound]",inhibition at 1 µM,RKO; [6],85.6 ± 1.06%
same,IC50,RKO; [11],510 ± 10 nM
same,inhibition at 1 µM,PC-3; [7],88 ± 1.65%
same,IC50,PC-3; [11],650 ± 80 nM
same,IC50,[4],1230 ± 100 nM
same,inhibition at 1 µM,A-549,9.16 ± 2.16%
same,inhibition at 1 µM,"MCF-7; MCF7, 100 µM, 48 h",46.2 ± 7.77%
same,inhibition at 1 µM,HeLa; 100 µM,9.18 ± 9.55%
same,inhibition at 1 µM,CHO-K1; 100 µM,2.62 ± 1.42%
"COS(C)(=O)=O [MMS, methyl methanesulfonate, reference compound]","Comet tail length, mean (vary)",[5],67050000
same,"Comet tail length, median (Q50)",[5],65000000
